Test results published in patent US6602899B1, “β-D-5 thioxylose derivatives, preparation method and therapeutic use” (Fournier Industrie & Sante, priority 1999, dated 2003).

Key:
[1] = test system: venous thrombosis; experiment: venous thrombosis test (venous stasis under hypercoagulation, WESSLER technique, activated factor X); format: in vivo, Wistar male rats; details: rat; for Activity p.o. T = 4 h (percentage inhibition of thrombus weight): thrombosis induced 4 h after administration; for Activity p.o. T = 8 h (percentage inhibition of thrombus weight): thrombosis induced 8 h after administration; for inhibition in vivo at 5 mg/kg: iv, i.v. in PEG 400, 5 mg/kg, thrombosis induced 2 h after administration, read-out: Activity i.v. T = 2 h (percentage inhibition relative to thrombus weight with vehicle)
Protocol: The test products are administered either orally (tubage) dissolved or suspended in PEG 400, or by intravenous injection dissolved in PEG 400. The concentration of the compounds is calculated so that the amount of solution absorbed is 2 ml/kg by oral administration and 1 ml/kg by intravenous injection. The compounds are generally administered intravenously at a dose of 5 mg/kg. If the test is performed after oral administration, the amount administered is calculated so as to correspond to about 2.10^−5 mol/kg. Thrombosis is induced at a time T (2 h, 4 h or 8 hours) after the administration of the product, and the thrombus formed is removed and weighed. To induce this thrombosis, a venous stasis is created under hypercoagulation according to the technique described by WESSLER (J. Applied Physiol. 1959, pp. 943-946), the hypercoagulating agent used being a solution of activated factor X (Xa) having a concentration of 7.5 nKat/kg, supplied by Biogenic. The results obtained, expressed as the percentage inhibition calculated relative to the weight of a thrombus obtained in the absence of active principle in the vehicle, are collated in Table I below. The activity of the test compounds was checked at different doses after they had been administered either orally (p.o.) or intravenously (i.v.). The thrombosis was induced 4 hours or 8 hours after oral administration of the compound and 2 hours after intravenous administration.

[2] = solubility in injectable solvents; format: physicochemical; details: especially water and PEG 400
[3] = test system: venous thrombus; details: administered orally, doses of 6 mg/kg and above; cited from earlier work

For `Cc1cc(=O)oc2cc(O[C@@H]3SC[C@@H](O)[C@H](O)[C@H]3O)ccc12` [D, 4-methyl-2-oxo-2H-1-benzopyran-7-yl 5-thio-β-D-xylopyranoside, reference compound], which “Activity p.o. T = 4 h (percentage inhibition of thrombus weight)” value ([1]; p.o. in PEG 400, 6 mg/kg) is on record?
Its value is 84%.

And the “Activity p.o. T = 8 h (percentage inhibition of thrombus weight)” value ([1]; p.o. in PEG 400, 6 mg/kg)?
The value was 15%.

What about the “solubility in injectable solvents” value [2] of the same compound?
Its value is “insoluble”.

What about the “reduction of the formation of a venous thrombus” value [3] of the same compound?
Its value is “more than 80%”.

With `COC(=O)O[C@@H]1[C@@H](OC(=O)OC)[C@H](OC(=O)OC)CS[C@H]1Oc1ccc2c(C)cc(=O)oc2c1` [Ex. 1, 4-Methyl-2-oxo-2H-1-benzopyran-7-yl 2,3,4-tri-O-methoxycarbonyl-5-thio-β-D-xylopyranoside] as the compound, how does the inhibition in vivo at 5 mg/kg [1] read?
Its inhibition in vivo at 5 mg/kg is 84%.

And the “Activity p.o. T = 4 h (percentage inhibition of thrombus weight)” value ([1]; p.o. in PEG 400, 9 mg/kg)?
Its value is 87%.

What about the “Activity p.o. T = 8 h (percentage inhibition of thrombus weight)” value ([1]; p.o. in PEG 400, 9 mg/kg) of the same compound?
Its value is 66%.

Which inhibition in vivo at 5 mg/kg [1] does the source give for `CCOC(=O)O[C@@H]1[C@@H](OC(=O)OCC)[C@H](OC(=O)OCC)CS[C@H]1Oc1ccc2c(C)cc(=O)oc2c1` [Ex. 2, 4-Methyl-2-oxo-2H-1-benzopyran-7-yl 2,3,4-tri-O-ethoxycarbonyl-5-thio-β-D-xylopyranoside] here?
Its inhibition in vivo at 5 mg/kg is 73%.

With `CCCOC(=O)O[C@@H]1[C@@H](OC(=O)OCCC)[C@H](OC(=O)OCCC)CS[C@H]1Oc1ccc2c(C)cc(=O)oc2c1` [Ex. 3, 4-Methyl-2-oxo-2H-1-benzopyran-7-yl 2,3,4-tri-O-propoxycarbonyl-5-thio-β-D-xylopyranoside] as the compound, how does the inhibition in vivo at 5 mg/kg [1] read?
The inhibition in vivo at 5 mg/kg was 71%.

With `CCCCOC(=O)O[C@@H]1[C@@H](OC(=O)OCCCC)[C@H](OC(=O)OCCCC)CS[C@H]1Oc1ccc2c(C)cc(=O)oc2c1` [Ex. 4, 4-Methyl-2-oxo-2H-1-benzopyran-7-yl 2,3,4-tri-O-butoxycarbonyl-5-thio-β-D-xylopyranoside] as the compound, how does the inhibition in vivo at 5 mg/kg [1] read?
Its inhibition in vivo at 5 mg/kg is 60%.

Which inhibition in vivo at 5 mg/kg [1] does the source give for `Cc1cc(=O)oc2cc(O[C@@H]3SC[C@@H](OC(=O)OCC(C)C)[C@H](OC(=O)OCC(C)C)[C@H]3OC(=O)OCC(C)C)ccc12` [Ex. 5, 4-Methyl-2-oxo-2H-1-benzopyran-7-yl 2,3,4-tri-O-(2-methylpropoxycarbonyl)-5-thio-β-D-xylopyranoside] here?
The inhibition in vivo at 5 mg/kg was 65%.

Which inhibition in vivo at 5 mg/kg [1] does the source give for `COCCOC(=O)O[C@@H]1[C@@H](OC(=O)OCCOC)[C@H](OC(=O)OCCOC)CS[C@H]1Oc1ccc2c(C)cc(=O)oc2c1` [Ex. 6, 4-Methyl-2-oxo-2H-1-benzopyran-7-yl 2,3,4-tri-O-(2-methoxyethoxycarbonyl)-5-thio-β-D-xylopyranoside] here?
The inhibition in vivo at 5 mg/kg was 52%.

For `C=CCC(=O)O[C@@H]1[C@@H](OC(=O)CC=C)[C@H](OC(=O)CC=C)CS[C@H]1Oc1ccc2c(C)cc(=O)oc2c1` [Ex. 7, 4-Methyl-2-oxo-2H-1-benzopyran-7-yl 2,3,4-tri-O-(2-propenylcarbonyl)-5-thio-β-D-xylopyranoside], which inhibition in vivo at 5 mg/kg [1] is on record?
Its inhibition in vivo at 5 mg/kg is 66%.

Which inhibition in vivo at 5 mg/kg [1] does the source give for `C=COC(=O)O[C@@H]1[C@@H](OC(=O)OC=C)[C@H](OC(=O)OC=C)CS[C@H]1Oc1ccc2c(C)cc(=O)oc2c1` [Ex. 8, 4-Methyl-2-oxo-2H-1-benzopyran-7-yl 2,3,4-tri-O-(ethenyloxycarbonyl)-5-thio-β-D-xylopyranoside] here?
Its inhibition in vivo at 5 mg/kg is 65%.

Which results are given for `Cc1cc(=O)oc2cc(O[C@@H]3SC[C@@H](OC(=O)OCCO)[C@H](OC(=O)OCCO)[C@H]3OC(=O)OCCO)ccc12` [Ex. 9, 4-Methyl-2-oxo-2H-1-benzopyran-7-yl 2,3,4-tri-O-(2-hydroxyethoxycarbonyl)-5-thio-β-D-xylopyranoside]?
inhibition in vivo at 5 mg/kg [1]: 27%; Activity p.o. T = 4 h (percentage inhibition of thrombus weight) ([1]; p.o. in PEG 400, 11 mg/kg): 93%; Activity p.o. T = 8 h (percentage inhibition of thrombus weight) ([1]; p.o. in PEG 400, 11 mg/kg): 29%
